Test results published in PubChem BioAssay (NCI).
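A five-concentration, 48-hour dose response in 96-well plates underlies each endpoint, interpolated linearly between surrounding concentrations. TGI marks complete inhibition of growth.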

Assays:
Test in all cases: NCI-60 cell line screen, 48 h
A549 NSCLC = tested on: A549 NSCLC
CAKI-1 renal = tested on: CAKI-1 renal
HCC-2998 colon = tested on: HCC-2998 colon
HOP-62 NSCLC = tested on: HOP-62 NSCLC
HOP-92 NSCLC = tested on: HOP-92 NSCLC
HT29 colon = tested on: HT29 colon
NCI-H226 lung = tested on: NCI-H226 lung
OVCAR-3 ovarian = tested on: OVCAR-3 ovarian
SF-295 CNS = tested on: SF-295 CNS
SK-MEL-28 melanoma = tested on: SK-MEL-28 melanoma
UACC-62 melanoma = tested on: UACC-62 melanoma
RXF 393 renal = tested on: RXF 393 renal

Row | Compound | TGI (A549 NSCLC) | TGI (CAKI-1 renal) | TGI (HCC-2998 colon) | TGI (HOP-62 NSCLC) | TGI (HOP-92 NSCLC) | TGI (HT29 colon) | TGI (NCI-H226 lung) | TGI (OVCAR-3 ovarian) | TGI (SF-295 CNS) | TGI (SK-MEL-28 melanoma) | TGI (UACC-62 melanoma) | TGI (RXF 393 renal)
1 | COc1ccc(N2C(=O)C3c4[nH]c5ccc(F)cc5c4C4CCC(c5ccccc5)CC4C3C2=O)cc1 (stereo unspecified) | > 100 µM | 48.1 µM | > 100 µM | 28.1 µM | 36.8 µM | > 100 µM | > 100 µM | > 100 µM | > 100 µM | 32.7 µM | 27.6 µM | –
2 | NNC(=O)c1nnn(CCc2ccccc2)c1C(=O)NN | > 100 µM | > 100 µM | > 100 µM | > 100 µM | – | > 100 µM | – | > 100 µM | > 100 µM | > 100 µM | – | –
3 | CCOC(=O)CC(=O)Nc1cccc2[nH]cnc12 | > 100 µM | > 100 µM | – | > 100 µM | > 100 µM | > 100 µM | > 100 µM | > 100 µM | > 100 µM | > 100 µM | > 100 µM | > 100 µM
4 | O=c1[nH]nc(Cc2ccccc2)n1CCO | > 100 µM | > 100 µM | > 100 µM | – | > 100 µM | > 100 µM | > 100 µM | > 100 µM | > 100 µM | > 100 µM | > 100 µM | –
5 | N#Cc1c(-c2ccccc2)c(N=Nc2ccc(Cl)cc2)c(=O)n2c1[nH]c1ccccc12 | > 100 µM | > 100 µM | > 100 µM | > 100 µM | – | – | > 100 µM | > 100 µM | > 100 µM | > 100 µM | – | > 100 µM
6 | Cc1ccc(/C(O)=C/c2nc3ccccc3s/c2=N/CS(=O)(=O)c2ccc(C)cc2)cc1 | > 10 µM | > 10 µM | > 10 µM | > 10 µM | > 10 µM | > 10 µM | – | > 10 µM | > 10 µM | > 10 µM | > 10 µM | –
7 | O=C1CCCCCCCCCCC1CN1CCCCC1 (stereo unspecified) | > 100 µM | – | > 100 µM | > 100 µM | – | > 100 µM | 82.4 µM | > 100 µM | > 100 µM | > 100 µM | > 100 µM | –
8 | CCOP(=O)(OCC)C(N)c1ccc(Cl)cc1 (stereo unspecified) | > 100 µM | > 100 µM | – | – | > 100 µM | > 100 µM | – | – | – | > 100 µM | > 100 µM | –
9 | CC1(C)C2CC(=O)C1(C)C(OCc1ccccc1)C2 (stereo unspecified) | > 100 µM | > 100 µM | > 100 µM | > 100 µM | – | > 100 µM | > 100 µM | > 100 µM | > 100 µM | > 100 µM | > 100 µM | –
10 | CC(C)(C)C(=O)OC12/C(=N/O)CCCCCC1c1ccccc12 (stereo unspecified) | 31.6 µM | 24.6 µM | > 100 µM | 37 µM | – | 26 µM | 35.4 µM | 32.1 µM | 29.2 µM | 32.8 µM | 31.5 µM | 33.9 µM
11 | FC(F)(F)c1cccc(-c2nc3ccccc3c3c2[C@@]2(N4CCCC4)CCCC[C@@H]32)c1 | > 100 µM | > 100 µM | – | > 100 µM | 55.2 µM | > 100 µM | > 100 µM | > 100 µM | 74.7 µM | – | 56.3 µM | > 100 µM
12 | COc1c(O)cc2c(c1O)C(=O)/C(=C/c1ccc(O)cc1)CO2 | > 100 µM | 53.9 µM | – | 76.3 µM | > 100 µM | 41.1 µM | – | 55.5 µM | > 100 µM | 35.3 µM | 40 µM | > 100 µM
13 | Nc1ccc(C(=O)c2cn(CCN3CCOCC3)c3ccccc23)c2ccccc12 | > 100 µM | > 100 µM | > 100 µM | > 100 µM | – | 55.9 µM | – | > 100 µM | > 100 µM | > 100 µM | > 100 µM | –
14 | COC(C)(C)C1(O)CCC(C)CC1=O (stereo unspecified) | > 100 µM | > 100 µM | > 100 µM | > 100 µM | > 100 µM | > 100 µM | – | > 100 µM | > 100 µM | > 100 µM | > 100 µM | > 100 µM
15 | Cc1cc(=O)oc2c(C)c(OCCCOc3ccc4c(C)cc(=O)oc4c3C)ccc12 | > 100 µM | > 100 µM | – | > 100 µM | > 100 µM | > 100 µM | – | > 100 µM | > 100 µM | > 100 µM | > 100 µM | –
16 | S=C(c1c[nH]c2ccccc12)N1CCN(Cc2ccccc2)CC1 | – | 56.1 µM | – | 33 µM | – | 30.1 µM | 35.9 µM | 29.4 µM | 29 µM | 31 µM | 33.7 µM | 30.9 µM
17 | CC(=O)OC[C@@H](OC(C)=O)[C@H](OC(C)=O)[C@@H]1OC(C)(C)O[C@@H]1C1SCCCS1 | > 100 µM | > 100 µM | > 100 µM | > 100 µM | – | – | – | > 100 µM | > 100 µM | > 100 µM | > 100 µM | > 100 µM
18 | CCNC(=O)c1c(O)c2ccccc2[nH]c1=O | > 100 µM | > 100 µM | > 100 µM | > 100 µM | > 100 µM | > 100 µM | > 100 µM | > 100 µM | > 100 µM | > 100 µM | – | > 100 µM
19 | O=[N+]([O-])c1cc2c(cc1/C=N/n1c(CO)nc3ccccc31)OCO2 | > 100 µM | > 100 µM | – | > 100 µM | > 100 µM | > 100 µM | > 100 µM | > 100 µM | > 100 µM | > 100 µM | > 100 µM | > 100 µM
20 | COc1cc2c(cc1OC)C1(COc3cc(O)c(O)c(O)c3C1=O)C2 (stereo unspecified) | > 50 µM | > 50 µM | – | > 50 µM | – | > 50 µM | > 50 µM | > 50 µM | > 50 µM | > 50 µM | > 50 µM | > 50 µM
21 | O=C(Cc1ccccc1)Nn1c(-c2ccccc2)nc2ccccc2c1=O | > 100 µM | – | > 100 µM | > 100 µM | > 100 µM | > 100 µM | > 100 µM | > 100 µM | > 100 µM | > 100 µM | > 100 µM | > 100 µM
22 | CC(=O)N=C1N(/C=C2\C(=O)Oc3ccccc3C2=O)C(=O)/C(=C/c2ccc(Cl)cc2Cl)N1C | > 100 µM | > 100 µM | > 100 µM | > 100 µM | – | > 100 µM | > 100 µM | > 100 µM | > 100 µM | > 100 µM | > 100 µM | > 100 µM
